# From patent publication US20210038753A1, “BIOLOGICAL STERILIZATION INDICATOR WITH STERILANT RESISTANCE MODULATOR” (3M INNOVATIVE PROPERTIES COMPANY, priority 2014, published 2021)
# Columns and labels:
# Format in all cases: cell-based
# [1] = system: Geobacillus stearothermophilus spores; experiment: Survival of spores (growth, pH indicator change) in modulator-treated self-contained biological indicators after H2O2 sterilant exposure (Example 1); conditions: for percentage of self-contained biological indicators that showed observable growth (pH indicator change): 2 minutes
# Description: Tub-shaped spore carriers (polypropylene), similar to those described in International Publication No. WO2014/189716 with the exception that they were not coated with colloidal nanoparticles, were used. Liquid-cultured Geobacillus stearothermophilus spores (>10^6), were suspended in sterile water. Approximately 10 μL of the spore suspension was deposited onto the spore carriers and dried at room temperature. Aliquots (0 μL, 5 μL, or 10 μL, respectively) of a 0.5M sterile solution of L-homocysteine were deposited into the dried, spore-coated tub-shaped spore carrier. The homocysteine-coated tubs were dried at room temperature. Thus, the final dried coating on the carriers included at least 10^6 spores with 0, 2.5 or 5 micromoles of L-homocysteine, respectively.
# FIG. 1. The outer container 12 was obtained from 3M ATTEST 1292 Rapid Biological Indicators (available from 3M Company; St. Paul, Minn.). The cap was obtained from 3M ATTEST 1261 Biological Indicators (3M Company). The nutrient medium was from 3M ATTEST 1292 ampoules with added methionine (5 g/L). Five individual self-contained biological indicators were exposed to different concentrations (listed in Table 3) of hydrogen peroxide for 2 minutes in a STERRAD NX sterilizer. After exposing them to the sterilization process, all of the self-contained biological indicators were activated by crushing the ampoule inside the outer container.
# [2] = system: Geobacillus stearothermophilus spores; experiment: Resistance of self-contained biological indicators to hydrogen peroxide sterilization, glucosidase enzyme activity fluorescence readout (ENZ+)
# Description: (§1) PET film (.09 mm thick) was coated with colloidal silica as described in International Publication No. WO2014/189716, which is incorporated herein by reference in its entirety. […] Separate aqueous spore coating solutions were prepared as described in Example 1 with the amino acids shown in table 4 present in the coating solutions. Two microliter aliquots (containing at least 10^6 spores) of the respective spore coating solutions were deposited onto the silica-coated PET film, forming a series of spaced-apart spots on the film. The spore coated films were dried in a 60° C. incubator for 12 minutes. Circular discs (hereinafter, “coated carriers”) of the PET film, each disc including one of the dried spots, were punched out and were used to assemble self-contained biological indicators (BI) similar to that shown in FIG. 1 of International Publication No. WO2014/189716. The coated carriers described above were placed into the “spore carrier 135” shown in FIG. 1 of International Publication No. WO2014/189716. Each self-contained BI comprised a polycarbonate outer container, a breaker, a cap, and a cap filter. Disposed inside the outer container were a coated carrier along with an ampoule media containing the nutrient medium from 3M ATTEST 1292 Rapid Readout Biological Indicators plus 5g/L methionine (as described in Example 1).
# (§2) The self-contained biological indicators with different concentrations of additives (Table 4) were exposed to hydrogen peroxide sterilization in STERRAD NX sterilizer. The sterilization processes were run by manually injecting 1.0 ml of 59% hydrogen peroxide per load, unless specified otherwise. The exposure time was varied to determine the resistance profile of self-contained BIs with different additive formulations. The BIs were activated by pressing down the cap to break the media ampoule. The activated BIs were placed in a bench-top fluorimeter (3M Company, St. Paul, Minn.) to detect fluorescence.
# (§3) A self-contained BI that is not completely inactivated (i.e., not all of the spores are killed by the sterilization process) will resume cellular functions upon activation of the BI. The production of glucosidase enzyme by surviving spores is an indication that at least one of the spores have not been inactivated (killed) by the sterilization process. The glucosidase enzyme cleaves the 4-methylumbelliferyl-glucoside (MUG) releasing the fluorescent methyl umbelliferone, which is detected using a bench-top fluorimeter. Growth and proliferation of spores in the self-contained biological indicator can also be detected by a pH change, which may be detected by a color change of the pH indicator in the growth medium.
# (§4) Self-contained biological indicators were prepared (with various additives listed in table 4) as described above in this Example. For each additive tested, a lower range and a higher range was used as a preliminary screen to identify additives modulated the resistance of the spores to the sterilant. Five self-contained BIs representing each condition were exposed to hydrogen peroxide sterilization in STERRAD NX sterilizer. The sterilization processes used a constant injection volume (1.0 ml of 59% hydrogen peroxide) and various times (e.g., 20 seconds to 7 minutes) of exposure to the hydrogen peroxide. The self-contained BIs were activated after exposure to the sterilization process and were monitored for fluorescence using a bench-top fluorimeter) and pH based color change (visually). […]
# (§5) Self-contained biological indicators (with various additives listed in table 5) were prepared as described in Example 2. The self-contained biological indicators were exposed to hydrogen peroxide in a STERRAD NX sterilizer as described in Example 2. The self-contained BIs were activated after exposure to the sterilization process and were monitored for fluorescence using a bench-top fluorimeter and pH based color change (visually).
# [3] = system: Geobacillus stearothermophilus spores; experiment: Resistance of self-contained biological indicators to hydrogen peroxide sterilization, growth readout by pH colour change (GRO+)
# Description: as §1, §2, §3, §4, §5
# [4] = Table 4, modulator 0.01 weight percent in spore coating solution, H2O2 exposure 30 sec.
# [5] = Table 4, modulator 0.01 weight percent in spore coating solution, H2O2 exposure 60 sec.
# [6] = Table 4, modulator 0.01 weight percent in spore coating solution, H2O2 exposure 90 sec.
# [7] = Table 4, modulator 0.01 weight percent in spore coating solution, H2O2 exposure 3 min.
# [8] = Table 4, modulator 0.01 weight percent in spore coating solution, H2O2 exposure 7 min.
# [9] = Table 4, modulator 0.1 weight percent in spore coating solution, H2O2 exposure 30 sec.
# [10] = Table 4, modulator 0.1 weight percent in spore coating solution, H2O2 exposure 60 sec.
# [11] = Table 4, modulator 0.1 weight percent in spore coating solution, H2O2 exposure 90 sec.
# [12] = Table 4, modulator 0.1 weight percent in spore coating solution, H2O2 exposure 3 min.
# [13] = Table 4, modulator 0.1 weight percent in spore coating solution, H2O2 exposure 7 min.
structure (smiles),measurement,setting,value
N[C@@H](CCS)C(=O)O [L-homocysteine],resistance of spores to H2O2 compared to 0 micromoles of L-homocysteine,"[1]; 2.5 micromoles of L-homocysteine, seen with 0.6 ml and 0.8 ml of 59% H2O2",decrease in resistance of spores
same,percentage of self-contained biological indicators that showed observable growth (pH indicator change),"[1]; 2.5 micromoles of homocysteine, 0.1 ml of 59% H2O2 (94 mg × Sec/L)",100%
same,percentage of self-contained biological indicators that showed observable growth (pH indicator change),"[1]; 2.5 micromoles of homocysteine, 0.2 ml of 59% H2O2 (222 mg × Sec/L)",80%
same,percentage of self-contained biological indicators that showed observable growth (pH indicator change),"[1]; 2.5 micromoles of homocysteine, 0.4 ml of 59% H2O2 (458 mg × Sec/L)",60%
same,percentage of self-contained biological indicators that showed observable growth (pH indicator change),"[1]; 2.5 micromoles of homocysteine, 0.6 ml of 59% H2O2 (689 mg × Sec/L)",60%
same,percentage of self-contained biological indicators that showed observable growth (pH indicator change),"[1]; 2.5 micromoles of homocysteine, 0.8 ml of 59% H2O2 (842 mg × Sec/L)",20%
same,resistance of spores to H2O2,"[1]; 5.0 micromoles of L-homocysteine, all kill with 0.4 ml of 59% H2O2",reduced the resistance of spores significantly
same,percentage of self-contained biological indicators that showed observable growth (pH indicator change),"[1]; 5.0 micromoles of homocysteine, 0.1 ml of 59% H2O2 (94 mg × Sec/L)",100%
same,percentage of self-contained biological indicators that showed observable growth (pH indicator change),"[1]; 5.0 micromoles of homocysteine, 0.2 ml of 59% H2O2 (222 mg × Sec/L)",40%
same,percentage of self-contained biological indicators that showed observable growth (pH indicator change),"[1]; 5.0 micromoles of homocysteine, 0.4 ml of 59% H2O2 (458 mg × Sec/L)",0%
same,percentage of self-contained biological indicators that showed observable growth (pH indicator change),"[1]; 5.0 micromoles of homocysteine, 0.6 ml of 59% H2O2 (689 mg × Sec/L)",0%
same,percentage of self-contained biological indicators that showed observable growth (pH indicator change),"[1]; 5.0 micromoles of homocysteine, 0.8 ml of 59% H2O2 (842 mg × Sec/L)",0%
"O=C(O)[C@@H]1CCCN1 [L-proline, reference compound]",percentage of self-contained biological indicators positive for glucosidase enzyme activity (ENZ+),[2]; [4],100%
same,percentage of self-contained biological indicators positive for glucosidase enzyme activity (ENZ+),[2]; [5],100%
same,percentage of self-contained biological indicators positive for glucosidase enzyme activity (ENZ+),[2]; [6],100%
same,percentage of self-contained biological indicators positive for glucosidase enzyme activity (ENZ+),[2]; [7],0%
same,percentage of self-contained biological indicators positive for glucosidase enzyme activity (ENZ+),[2]; [8],0%
same,percentage of self-contained biological indicators positive for glucosidase enzyme activity (ENZ+),[2]; [9],100%
same,percentage of self-contained biological indicators positive for glucosidase enzyme activity (ENZ+),[2]; [10],100%
same,percentage of self-contained biological indicators positive for glucosidase enzyme activity (ENZ+),[2]; [11],100%
same,percentage of self-contained biological indicators positive for glucosidase enzyme activity (ENZ+),[2]; [12],0%
same,percentage of self-contained biological indicators positive for glucosidase enzyme activity (ENZ+),[2]; [13],0%
same,sensitivity of the biological indicator to the sterilization process relative to the control with no additives,"[3]; Example 2 / Comparative Example 1 (Table 4), fluorescence and growth readouts",did not result in an increased sensitivity
same,percentage of self-contained biological indicators positive for growth (GRO+),[3]; [4],100%
same,percentage of self-contained biological indicators positive for growth (GRO+),[3]; [5],100%
same,percentage of self-contained biological indicators positive for growth (GRO+),[3]; [6],100%
same,percentage of self-contained biological indicators positive for growth (GRO+),[3]; [7],0%
same,percentage of self-contained biological indicators positive for growth (GRO+),[3]; [8],0%
same,percentage of self-contained biological indicators positive for growth (GRO+),[3]; [9],100%
same,percentage of self-contained biological indicators positive for growth (GRO+),[3]; [10],100%
same,percentage of self-contained biological indicators positive for growth (GRO+),[3]; [11],100%
same,percentage of self-contained biological indicators positive for growth (GRO+),[3]; [12],0%
same,percentage of self-contained biological indicators positive for growth (GRO+),[3]; [13],0%
